Measured values from the NIST ThermoML archive (doi:10.1021/je0301489).

Key:
[1] = refractive index (Na D-line) (dimensionless); xn = mol fraction of the nth substance listed; conditions: 101.33 kPa, Liquid
[2] = xn = mol fraction of the nth substance listed; conditions: 101.33 kPa, Liquid

C1COCCO1 [1,4-dioxane] + CCOC(=O)CC(C)=O
x1 = 1
Conditions	mass density, 298.15 K [kg/m3]	mass density, 303.15 K [kg/m3]	mass density, 308.15 K [kg/m3]	refractive index, 298.15 K	refractive index, 303.15 K	refractive index, 308.15 K	speed of sound, 298.15 K [m/s]	viscosity, 298.15 K [mPa·s]	viscosity, 303.15 K [mPa·s]	viscosity, 308.15 K [mPa·s]
[1]	–	–	–	1.4201	1.417	1.4144	–	–	–	–
[2]	1027.6	1021.9	1016.2	–	–	–	1347	1.166	1.069	0.984

CCOC(=O)c1ccccc1C(=O)OCC [diethyl phthalate] + C1COCCO1
Conditions	mass density, 298.15 K [kg/m3]	mass density, 303.15 K [kg/m3]	mass density, 308.15 K [kg/m3]	refractive index, 298.15 K	refractive index, 303.15 K	refractive index, 308.15 K	speed of sound, 298.15 K [m/s]	viscosity, 298.15 K [mPa·s]	viscosity, 303.15 K [mPa·s]	viscosity, 308.15 K [mPa·s]
[1], x2 = 0	–	–	–	1.5001	1.4978	1.4958	–	–	–	–
[1], x2 = 0.1133	–	–	–	1.4962	1.494	1.4917	–	–	–	–
[1], x2 = 0.2083	–	–	–	1.4924	1.4902	1.4882	–	–	–	–
[1], x2 = 0.3086	–	–	–	1.4882	1.486	1.4837	–	–	–	–
[1], x2 = 0.409	–	–	–	1.4826	1.4805	1.4783	–	–	–	–
[1], x2 = 0.5026	–	–	–	1.4768	1.4747	1.4724	–	–	–	–
[1], x2 = 0.5985	–	–	–	1.47	1.4676	1.4653	–	–	–	–
[1], x2 = 0.702	–	–	–	1.4608	1.4585	1.4564	–	–	–	–
[1], x2 = 0.8001	–	–	–	1.4504	1.4481	1.4457	–	–	–	–
[1], x2 = 0.8975	–	–	–	1.4376	1.435	1.4326	–	–	–	–
[2], x2 = 0	1115.1	1110.2	1105.6	–	–	–	1446	7.926	6.129	4.893
[2], x2 = 0.1133	1110.7	1105.8	1101	–	–	–	1435	6.52	5.327	4.134
[2], x2 = 0.2083	1106.5	1101.5	1096.6	–	–	–	1427	5.536	4.567	3.597
[2], x2 = 0.3086	1101.4	1096.3	1091.4	–	–	–	1418	4.593	3.813	3.032
[2], x2 = 0.409	1095.5	1090.4	1085.3	–	–	–	1408	3.793	3.18	2.568
[2], x2 = 0.5026	1089.1	1084	1078.7	–	–	–	1399	3.122	2.637	2.151
[2], x2 = 0.5985	1081.4	1076.1	1070.9	–	–	–	1390	2.544	2.184	1.824
[2], x2 = 0.702	1071.6	1066.1	1060.8	–	–	–	1380	2.037	1.753	1.468
[2], x2 = 0.8001	1060.2	1054.7	1049.2	–	–	–	1370	1.641	1.436	1.23
[2], x2 = 0.8975	1046.3	1040.7	1035	–	–	–	1359	1.319	1.18	1.042

CCOC(=O)CC(C)=O [ethyl 3-oxobutanoate] + C1COCCO1
Conditions	mass density, 298.15 K [kg/m3]	mass density, 303.15 K [kg/m3]	mass density, 308.15 K [kg/m3]	refractive index, 298.15 K	refractive index, 303.15 K	refractive index, 308.15 K	speed of sound, 298.15 K [m/s]	viscosity, 298.15 K [mPa·s]	viscosity, 303.15 K [mPa·s]	viscosity, 308.15 K [mPa·s]
[1], x2 = 0	–	–	–	1.4166	1.4145	1.412	–	–	–	–
[1], x2 = 0.1134	–	–	–	1.417	1.4146	1.4122	–	–	–	–
[1], x2 = 0.2058	–	–	–	1.4171	1.4148	1.4124	–	–	–	–
[1], x2 = 0.3054	–	–	–	1.4174	1.415	1.4126	–	–	–	–
[1], x2 = 0.4008	–	–	–	1.4176	1.4154	1.413	–	–	–	–
[1], x2 = 0.4986	–	–	–	1.4178	1.4155	1.413	–	–	–	–
[1], x2 = 0.5955	–	–	–	1.418	1.416	1.4132	–	–	–	–
[1], x2 = 0.6972	–	–	–	1.4186	1.4162	1.4137	–	–	–	–
[1], x2 = 0.7971	–	–	–	1.4192	1.4166	1.414	–	–	–	–
[1], x2 = 0.8964	–	–	–	1.4195	1.4169	1.4144	–	–	–	–
[2], x2 = 0	1020.9	1014.9	1010.2	–	–	–	1331	1.48	1.339	1.239
[2], x2 = 0.1134	1021.5	1016	1010.6	–	–	–	1335	1.425	1.311	1.197
[2], x2 = 0.2058	1022.1	1016.5	1011	–	–	–	1338	1.386	1.276	1.165
[2], x2 = 0.3054	1022.7	1017.1	1011.4	–	–	–	1340	1.346	1.24	1.133
[2], x2 = 0.4008	1023.3	1017.6	1011.9	–	–	–	1342	1.309	1.205	1.102
[2], x2 = 0.4986	1024	1018.2	1012.4	–	–	–	1344	1.272	1.172	1.072
[2], x2 = 0.5955	1024.7	1018.8	1013	–	–	–	1345	1.237	1.14	1.044
[2], x2 = 0.6972	1025.4	1019.5	1013.7	–	–	–	1346	1.208	1.115	1.021
[2], x2 = 0.7971	1026.1	1020.3	1014.4	–	–	–	1346	1.182	1.091	1
[2], x2 = 0.8964	1026.8	1021	1015.2	–	–	–	1347	1.166	1.077	0.988
